Assay results from ChEMBL document CHEMBL4002542, “Rapid preparation of (3R,4S,5R) polyhydroxylated pyrrolidine-based libraries to discover a pharmacological chaperone for treatment of Fabry disease” (Eur J Med Chem, 2017).
Changes are numbered by the printed parent chain. Activity calls are given as the source filed them. No cut-off for these calls is given here.

Legend:
[1] = tested on: T1, Alpha-galactosidase A (Homo sapiens), P06280 [R301Q]; test: (§1) Chaperone activity assessed as enhancement of human alpha GAL-A R301Q mutant enzyme activity expressed in COS7 cells at 10 to 100 uM at pH 4.6 pretreated for 60 hrs followed by 4MU-alpha-galactopyranoside substrate addition in presence of N-acetylgalactosamine measured after 1 hr by fluorescence assay relative to control; type: cell-based
T1 sequence (whole entry): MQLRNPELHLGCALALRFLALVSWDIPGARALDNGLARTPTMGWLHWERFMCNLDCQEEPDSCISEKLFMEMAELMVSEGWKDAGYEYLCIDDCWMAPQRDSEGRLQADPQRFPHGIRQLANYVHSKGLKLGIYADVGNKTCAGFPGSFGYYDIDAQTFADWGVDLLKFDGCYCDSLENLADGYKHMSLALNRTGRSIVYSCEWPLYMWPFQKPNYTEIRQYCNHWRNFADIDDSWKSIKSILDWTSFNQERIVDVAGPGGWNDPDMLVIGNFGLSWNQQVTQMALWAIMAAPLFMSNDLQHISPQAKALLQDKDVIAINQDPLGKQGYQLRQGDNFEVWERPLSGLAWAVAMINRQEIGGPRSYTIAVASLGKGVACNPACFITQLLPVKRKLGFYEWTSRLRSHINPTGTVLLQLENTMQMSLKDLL

[2] = target: Alpha-galactosidase (Coffea arabica) (UniProt Q42656); test: Inhibition of green coffee bean alpha-galactosidase at 100 uM using p-nitrophenyl-glycopyranoside or 4-methylumbelliferyl-glycopyranoside as substrate by spectrophotometric method relative to control
Alpha-galactosidase (Coffea arabica), sequence (Q42656 16-378 limits assumed): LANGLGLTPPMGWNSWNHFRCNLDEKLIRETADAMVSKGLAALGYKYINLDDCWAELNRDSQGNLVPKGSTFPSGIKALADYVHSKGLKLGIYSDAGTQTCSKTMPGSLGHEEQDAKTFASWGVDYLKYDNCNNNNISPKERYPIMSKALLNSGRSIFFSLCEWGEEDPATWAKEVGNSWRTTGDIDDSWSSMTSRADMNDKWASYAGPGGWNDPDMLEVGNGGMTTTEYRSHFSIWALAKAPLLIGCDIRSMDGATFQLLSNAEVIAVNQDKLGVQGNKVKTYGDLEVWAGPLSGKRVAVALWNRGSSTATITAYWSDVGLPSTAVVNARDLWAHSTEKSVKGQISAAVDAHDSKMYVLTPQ

[3] = tested on: Geobacillus stearothermophilus; test: Inhibition of Bacillus stearothermophilus alpha-glucosidase at 100 uM using p-nitrophenyl-glycopyranoside or 4-methylumbelliferyl-glycopyranoside as substrate by spectrophotometric method relative to control
[4] = Cytotoxicity against human lymphocytes measured after 48 to 72 hrs by alamar blue assay; type: cell-based, Lymphocyte
[5] = tested on: T2, Alpha-galactosidase A (Homo sapiens), P06280 [R363C]; test: as §1, with “R363C” for “R301Q”; type: cell-based
T2 sequence (whole entry): T1 sequence (whole entry) with Q301R, R363C

Activity [1]: Active | inhibition [2]: 94% | inhibition [3]: < 5% | Activity [5]: Active
SMILES: O=C(CCCCC1CCCCC1)NC[C@H]1N[C@H](CO)[C@H](O)[C@@H]1O
CC50 [4]: > 200 µM
